Bounds are passed on as bounds.

These results are taken from US10577363B2, “Substituted piperidine compounds” (EPIZYME, INC., priority 2014, dated 2020).

For test [1], the target named is T1, SMYD3 (Homo sapiens (Human), UniProt Q9H7B4). As to the kind of experiment: SMYD3 biochemical assay (SPA, 3H-SAM methylation of MEKK2 protein substrate). The settings on record: read-out: SMYD3 Biochem IC50 (μM)*. The method, boiled down: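 Methylation of N-terminally GST-tagged MEKK2 by untagged full-length human SMYD3, using 3H-SAM, in pH 8.0 Tris buffer with TCEP, BSG and Tween 20; enzyme and compound sat 30 min at room temperature before substrate addition. Stopped with 100 uM (final) cold SAM; incorporation read by scintillation proximity as dpm/cpm.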

Test [2] deals with T1, SMYD3. As to the kind of experiment: SMYD3 cell assay (Trimethyl-MEKK2 In-Cell Western in 293T/17 cells). The format is cell-based. The following applies: 293T/17 cells; read-out: SMYD3 Cell IC50 (μM)*. In short, it runs like this: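 In-Cell Western readout: methanol-fixed cells stained for trimethyl-MEKK2 and flag tag, ratio per well normalized to DMSO and background controls.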

T1 sequence (Q9H7B4 whole entry): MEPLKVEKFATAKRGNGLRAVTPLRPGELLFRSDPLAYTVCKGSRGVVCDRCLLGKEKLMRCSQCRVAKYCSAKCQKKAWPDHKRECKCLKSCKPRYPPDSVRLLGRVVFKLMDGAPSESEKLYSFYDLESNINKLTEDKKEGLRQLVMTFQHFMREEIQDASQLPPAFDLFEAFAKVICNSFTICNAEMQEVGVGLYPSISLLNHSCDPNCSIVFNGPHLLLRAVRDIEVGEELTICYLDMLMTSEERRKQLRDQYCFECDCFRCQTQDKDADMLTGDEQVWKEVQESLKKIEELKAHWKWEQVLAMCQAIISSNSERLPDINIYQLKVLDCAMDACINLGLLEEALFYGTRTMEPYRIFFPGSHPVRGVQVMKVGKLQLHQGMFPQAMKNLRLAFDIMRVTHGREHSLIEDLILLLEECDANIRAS

One may read the IC50 as the concentration needed to halve the response being measured. Take `C[C@H]1C[C@@H](NC(=O)c2cc(C3CC3)on2)CCN1S(=O)(=O)c1ccc(N(C)CCN2CCOCC2)nc1` [compound 414, 5-cyclopropyl-N-((2S,4S)-2-methyl-1-((6-(methyl(2-morpholinoethyl)amino)pyridin-3-yl)sulfonyl)piperidin-4-yl)isoxazole-3-carboxamide]: the IC50 stood at 0.889 µM on SMYD3 [1] and 2.61 µM at SMYD3 [2].

For `C[C@H]1C[C@H](NC(=O)c2cc(C3CC3)on2)CCN1S(=O)(=O)c1ccc(NCCN)nc1` [compound 415, N-((2S,4R)-1-((6-((2-aminoethyl)amino)pyridin-3-yl)sulfonyl)-2-methylpiperidin-4-yl)-5-cyclopropylisoxazole-3-carboxamide], the IC50 turned out to be 0.135 µM at SMYD3 [1] and 5.62 µM on SMYD3 [2].

Take `C[C@H]1CN(C(=O)[C@H]2CC[C@H](N)CC2)[C@@H](C)C[C@H]1NC(=O)c1cc(C2CC2)on1` [compound 419, N-((2S,4R,5S)-1-((1r,4S)-4-aminocyclohexane-1-carbonyl)-2,5-dimethylpiperidin-4-yl)-5-cyclopropylisoxazole-3-carboxamide]: the results for the IC50 on SMYD3 [1] and at SMYD3 [2] were 1.95 µM and more than 10 µM, respectively.

`NCCCS(=O)(=O)N1CC[C@H](NC(=O)c2cc(C3CC3)on2)C[C@H]1Cc1ccccc1` [compound 423, N-((2R,4S)-1-((3-aminopropyl)sulfonyl)-2-benzylpiperidin-4-yl)-5-cyclopropylisoxazole-3-carboxamide]: the IC50 is 0.25 µM on SMYD3 [1] and 1.86 µM at SMYD3 [2].

With `NCCCS(=O)(=O)N1CC[C@H](NC(=O)c2cc(C3CC3)on2)C[C@@H]1Cc1ccccc1` [compound 424, N-((2S,4S)-1-((3-aminopropyl)sulfonyl)-2-benzylpiperidin-4-yl)-5-cyclopropylisoxazole-3-carboxamide], the IC50 at SMYD3 [1] was 0.228 µM; at SMYD3 [2], 1.8 µM.

Take `CC1CC(NC(=O)c2cc(C3CC3)on2)CCN1C(=O)Cc1ncc[nH]1` (stereo not shown) [compound 427, N-(1-(2-(1H-imidazol-2-yl)acetyl)-2-methylpiperidin-4-yl)-5-cyclopropylisoxazole-3-carboxamide]: the IC50 at SMYD3 [1] and at SMYD3 [2] was more than 10 µM each time.

For the molecule `C[C@@H]1C[C@H](NC(=O)c2cc(C3CC3)on2)CCN1S(=O)(=O)c1c[nH]cn1` [compound 428, N-((2R,4R)-1-((1H-imidazol-4-yl)sulfonyl)-2-methylpiperidin-4-yl)-5-cyclopropylisoxazole-3-carboxamide], the IC50 at SMYD3 [1] turned out to be 0.732 µM; on SMYD3 [2], 2.58 µM.

With `CC(=O)Nc1ccc(S(=O)(=O)N2[C@@H]3CC[C@H]2C[C@H](NC(=O)c2cc(C4CC4)on2)C3)cc1` [compound 430, N-((1R,3s,5S)-8-((4-acetamidophenyl)sulfonyl)-8-azabicyclo[3.2.1]octan-3-yl)-5-cyclopropylisoxazole-3-carboxamide], the IC50 amounted to 3.66 µM on SMYD3 [1] and 4.52 µM at SMYD3 [2].

Consider `O=C(Nc1ccc(S(=O)(=O)N2[C@@H]3CC[C@H]2C[C@@H](NC(=O)c2cc(C4CC4)on2)C3)cc1)c1ccncc1` [compound 431, 5-cyclopropyl-N-((1R,3r,5S)-8-((4-(isonicotinamido)phenyl)sulfonyl)-8-azabicyclo[3.2.1]octan-3-yl)isoxazole-3-carboxamide], for which the IC50 at SMYD3 [1] and on SMYD3 [2] was more than 10 µM in each case.

`O=C1Cc2cc(S(=O)(=O)N3[C@@H]4CC[C@H]3C[C@@H](NC(=O)c3cc(C5CC5)on3)C4)c(Cl)cc2N1` [compound 432, N-((1R,3r,5S)-8-((6-chloro-2-oxoindolin-5-yl)sulfonyl)-8-azabicyclo[3.2.1]octan-3-yl)-5-cyclopropylisoxazole-3-carboxamide]: the IC50 is 6.3 µM on SMYD3 [1] and more than 10 µM on SMYD3 [2].

For `O=C1Cc2cc(S(=O)(=O)N3[C@@H]4CC[C@H]3C[C@@H](NC(=O)c3cc(C5CC5)on3)C4)ccc2N1` [compound 433, 5-cyclopropyl-N-((1R,3r,5S)-8-((2-oxoindolin-5-yl)sulfonyl)-8-azabicyclo[3.2.1]octan-3-yl)isoxazole-3-carboxamide], the IC50 on SMYD3 [1] was 4.19 µM; at SMYD3 [2] it was more than 10 µM.

Consider `O=C(N[C@H]1C[C@H]2CC[C@@H](C1)N2S(=O)(=O)c1ccc2[nH]c(=O)[nH]c2c1)c1cc(C2CC2)on1` [compound 434, 5-cyclopropyl-N-((1R,3r,5S)-8-((2-oxo-2,3-dihydro-1H-benzo[d]imidazol-5-yl)sulfonyl)-8-azabicyclo[3.2.1]octan-3-yl)isoxazole-3-carboxamide], for which the IC50 at SMYD3 [1] was 2.41 µM; on SMYD3 [2] it was more than 10 µM.

Take `O=C(N[C@@H]1C[C@H]2CC[C@@H](C1)N2S(=O)(=O)CCN1CCCC1)c1cc(C2CC2)on1` [compound 435, 5-cyclopropyl-N-((1R,3s,5S)-8-((2-(pyrrolidin-1-yl)ethyl)sulfonyl)-8-azabicyclo[3.2.1]octan-3-yl)isoxazole-3-carboxamide]: the results for the IC50 at SMYD3 [1] and on SMYD3 [2] were 2 µM and 5.59 µM, respectively.

For `O=C(N[C@H]1CCN(S(=O)(=O)CCN2CCCC2)[C@@H](Cc2ccccc2)C1)c1cc(C2CC2)on1` [compound 437, N-((2S,4S)-2-benzyl-1-((2-(pyrrolidin-1-yl)ethyl)sulfonyl)piperidin-4-yl)-5-cyclopropylisoxazole-3-carboxamide], the IC50 at SMYD3 [1] was found to be 1 µM; at SMYD3 [2] it was 4.62 µM.

For `O=C(N[C@@H]1CCN(S(=O)(=O)CCCN2CCOCC2)[C@@H](Cc2ccccc2)C1)c1cc(C2CC2)on1` [compound 438, N-((2S,4R)-2-benzyl-1-((3-morpholinopropyl)sulfonyl)piperidin-4-yl)-5-cyclopropylisoxazole-3-carboxamide], the IC50 at SMYD3 [1] is 9.18 µM; at SMYD3 [2], more than 10 µM.

In the case of `O=C(N[C@@H]1CCN(S(=O)(=O)CCCN2CCOCC2)[C@H](Cc2ccccc2)C1)c1cc(C2CC2)on1` [compound 439, N-((2R,4R)-2-benzyl-1-((3-morpholinopropyl)sulfonyl)piperidin-4-yl)-5-cyclopropylisoxazole-3-carboxamide], the IC50 on SMYD3 [1] and at SMYD3 [2] was more than 10 µM in each case.

For `O=C(N[C@@H]1C[C@H]2CC[C@@H](C1)N2S(=O)(=O)CCN1CCOCC1)c1cc(C2CC2)on1` [compound 440, 5-cyclopropyl-N-((1R,3s,5S)-8-((2-morpholinoethyl)sulfonyl)-8-azabicyclo[3.2.1]octan-3-yl)isoxazole-3-carboxamide], the IC50 at SMYD3 [1] and at SMYD3 [2] was more than 10 µM each time.

For the molecule `O=C(N[C@H]1C[C@H]2CC[C@@H](C1)N2S(=O)(=O)CCN1CCOCC1)c1cc(C2CC2)on1` [compound 441, 5-cyclopropyl-N-((1R,3r,5S)-8-((2-morpholinoethyl)sulfonyl)-8-azabicyclo[3.2.1]octan-3-yl)isoxazole-3-carboxamide], the figures for the IC50 at SMYD3 [1] and at SMYD3 [2] were 1.61 µM and 3.67 µM, respectively.

Turning to `O=C(NC1CC2CCCC(C1)N2S(=O)(=O)CCN1CCCC1)c1cc(C2CC2)on1` (stereo not shown) [compound 442, 5-cyclopropyl-N-(9-((2-(pyrrolidin-1-yl)ethyl)sulfonyl)-9-azabicyclo[3.3.1]nonan-3-yl)isoxazole-3-carboxamide], the IC50 stood at 1.11 µM at SMYD3 [1] and 4.55 µM at SMYD3 [2].

Regarding `O=C(NC1CC2CCCC(C1)N2S(=O)(=O)CCN1CCOCC1)c1cc(C2CC2)on1` (stereo not shown) [compound 443, 5-cyclopropyl-N-(9-((2-morpholinoethyl)sulfonyl)-9-azabicyclo[3.3.1]nonan-3-yl)isoxazole-3-carboxamide], the IC50 at SMYD3 [1] and on SMYD3 [2] was more than 10 µM each time.

As to `CNCCCS(=O)(=O)N1CC[C@H](NC(=O)c2cc(C3CC3)on2)C[C@@H]1C` [compound 444, 5-cyclopropyl-N-((2S,4S)-2-methyl-1-((3-(methylamino)propyl)sulfonyl)piperidin-4-yl)isoxazole-3-carboxamide], the results for the IC50 at SMYD3 [1] and on SMYD3 [2] were 0.0131 µM and 0.181 µM, respectively.

Take `CNc1ccc(S(=O)(=O)N2CC[C@H](NC(=O)c3cc(C4CC4)on3)C[C@@H]2C)cn1` [compound 446, 5-cyclopropyl-N-((2S,4S)-2-methyl-1-((6-(methylamino)pyridin-3-yl)sulfonyl)piperidin-4-yl)isoxazole-3-carboxamide]: the IC50 on SMYD3 [1] was found to be 0.89 µM; on SMYD3 [2] it was 2.25 µM.

In the case of `CNc1ccc(S(=O)(=O)N2CC[C@@H](NC(=O)c3cc(C4CC4)on3)C[C@H]2C)cn1` [compound 449, 5-cyclopropyl-N-((2R,4R)-2-methyl-1-((6-(methylamino)pyridin-3-yl)sulfonyl)piperidin-4-yl)isoxazole-3-carboxamide], the IC50 on SMYD3 [1] and at SMYD3 [2] was more than 10 µM throughout.

Regarding `CC(C)CNc1ccc(S(=O)(=O)N2CC[C@H](NC(=O)c3cc(C4CC4)on3)C[C@@H]2C)cn1` [compound 450, 5-cyclopropyl-N-((2S,4S)-1-((6-(isobutylamino)pyridin-3-yl)sulfonyl)-2-methylpiperidin-4-yl)isoxazole-3-carboxamide], the IC50 on SMYD3 [1] was found to be 1.1 µM; at SMYD3 [2] it was 3.48 µM.

Turning to `CC(C)CNc1ccc(S(=O)(=O)N2CC[C@@H](NC(=O)c3cc(C4CC4)on3)C[C@H]2C)cn1` [compound 453, 5-cyclopropyl-N-((2R,4R)-1-((6-(isobutylamino)pyridin-3-yl)sulfonyl)-2-methylpiperidin-4-yl)isoxazole-3-carboxamide], the IC50 on SMYD3 [1] was 7.19 µM; at SMYD3 [2] it was more than 10 µM.

As to `CC(C)CN(C)c1ccc(S(=O)(=O)N2CC[C@@H](NC(=O)c3cc(C4CC4)on3)C[C@H]2C)cn1` [compound 454, 5-cyclopropyl-N-((2R,4R)-1-((6-(isobutyl(methyl)amino)pyridin-3-yl)sulfonyl)-2-methylpiperidin-4-yl)isoxazole-3-carboxamide], the IC50 at SMYD3 [1] and at SMYD3 [2] was more than 10 µM throughout.
